Measurements published in article PMC10969560, “Eye Drop with Fas-Blocking Peptide Attenuates Age-Related Macular Degeneration” (Cells, 2024).

Key:
[1] = system: Jurkat cells; test: Flow cytometry analysis of Fas/FasL-mediated apoptosis in Jurkat cells; type: cell-based; conditions: N=3, Figure S4B
From the text: (§1) Figure S4. Size- dependent FBP binding test in Jurkat cells. (A) Size- dependent FBP flow cytometry analysis of binding in Jurkat cells. (B) Size-dependent FBP flow cytometry analysis of apoptosis in Jurkat cells. The data are pres en ted as the mean ± SD (N=3 per group). *P<0.05, ***P<0.001, and ns indicates not

[2] = system: Fas-expressing Jurkat cells; test: Size-dependent FBP binding test in Jurkat cells (flow cytometry); conditions: N=3, Figure S4A
From the text: as §1

[3] = system: NaIO3-induced retinal degeneration mice; conditions: mouse, in vivo
Description: Retinal degeneration was induced by intravenous injection of NaIO3 (30 mg/kg) in 6-week-old male BALB/c mice (N = 3 per group), weighing 18–22 g (Orient Bio, Seoul, Korea). The eye drop administration group received peptides dissolved in PBS at dosages of 10 mg/mL (50 μg/5 μL) per ocular instillation. For intravitreal administration, peptide solutions dissolved in PBS were administered into the vitreous humor at a concentration of 1 mg/mL (1 μg/1 μL) per administration.
The N-terminal of the target peptide was fluorescently tagged using Alexa Fluor™ 647 NHS Ester (Succinimidyl Ester) (Invitrogen, Carlsbad, CA, USA), following the manufacturer’s protocol. Subsequently, free dye molecules were removed through a PD-10 desalting column (GE Healthcare, Milwaukee, WI, USA). Seven days after induction with NaIO3, Alexa647-conjugated peptides were administered via eye drops. Twelve hours after the last administration, organs were harvested for experiments, and Alexa647 signals were detected on whole organs using a FOBI imaging machine ([sequence], Cheongju, Republic of Korea).
For IHC, eyes were harvested and embedded in the Tissue-Tek® OCT Compound (Sakura Finetek Europe BV, Alphen aan den Rijn, The Netherlands) to prepare cryoblocks for cryosectioning. After freezing the eyes in the Tissue-Tek® OCT Compound, the eyes were cryosectioned to a thickness of 10 μm and mounted with ProLong™ Glass Antifade Mountant with NucBlue™ Stain (Invitrogen). The anti-Fas rabbit mAb (#4233S, Cell Signaling Technology, Danvers, MA, USA) was used to capture the Fas receptor, and the Fas antibody was subsequently detected using Goat Anti-Rabbit IgG H&L (Alexa Fluor® 488) (ab150077, Abcam, Cambridge, UK). A ZEISS Axio Scan.Z1 Slide Scanner (Carl Zeiss, Oberkochen, Germany) was employed to detect NucBlue™ stained cell nuclei and the Alexa647-conjugated peptide signals.

[4] = system: NaIO3-induced ARPE-19 cells; test: CCK-8 cell viability in NaIO3-induced ARPE-19 cells; type: cell-based, human; conditions: NaIO3 10 mM, 24 h, FBP 100, 300, 500, 700, 900 μM, three independent experiments, Figure S2
Description: All experiments were performed using cells within specified passages.
Figure S2. Concentration -dependent cel l viability in NaI O3-indu ced ARPE-19 cells. Cell viability under concentration-dependent conditions wa s evaluated in NaIO3-induced ARPE- 19 cells. The data are presented as the mean ± SD from three independent experiments. ***P<0.001, and ns indicates not significa nt.

[5] = system: NF-κB, ERK, and JNK; test: RT-PCR of cytokine and signaling pathway-related genes in NaIO3-treated ARPE-19 cells; type: cell-based, human; conditions: ARPE-19, NaIO3 10 mM + FBP 700 μM, 24 h; Figure 1D
Description: (§2) After 24 h of treatment with NaIO3 (10 mM) and the FBP peptide (700 μM), the cells were harvested for analysis. Total RNA from the ARPE-19 cells was extracted using the RNAiso kit (Takara, Kyoto, Japan). Total RNA was reverse-transcribed into cDNA using the High-Capacity cDNA Reverse Transcription Kit (Applied Biosystems, Waltham, MA, USA). The quantification of gene expression was performed using PowerUp™ SYBR™ Green Master Mix (Thermo Fisher Scientific, Waltham, MA, USA) on an ABI 7500 Fast Real-Time PCR system (Applied Biosystems, Waltham, MA, USA). The sequences of primer pairs used for real-time PCR are depicted in Table 2.

[6] = system: NaIO3-induced retinal degeneration mice; test: H&E histology in NaIO3-induced retinal degeneration mouse model; type: in vivo, BALB/c mice; conditions: NaIO3 30 mg/kg i.v., N=3, Figure 3B
Description: (§3) To confirm the therapeutic effect of 6R-FBP, histological evaluation was conducted through hematoxylin and eosin (H&E) staining and the TUNEL assay. The eyes were fixed with 4% paraformaldehyde in PBS at room temperature for 20 min. After fixation, the eyes were sequentially incubated in 10%, 20%, and 30% (w/v) sucrose solution diluted in PBS for 30 min each at room temperature. Subsequently, the eyeballs were sagittally halved with a razor blade and embedded in Tissue-Tek® OCT Compound, and then frozen immediately in a liquid nitrogen chamber. Trimming was minimized to maintain controlled distances and ensure consistency, and sections were sliced at a thickness of 10 μm. Sections from the eye cryoblock were used for H&E staining and the TUNEL assay. The TUNEL assay was conducted according to the manufacturer’s protocol using the TUNEL assay kit (Abcam).

[7] = system: ARPE-19 cells; test: Annexin V/PI flow cytometry apoptosis analysis in NaIO3-treated ARPE-19 cells; type: cell-based, human; conditions: ARPE-19, NaIO3 10 mM + peptide 700 μM, 24 h; N=3; Figure 1B
Description: The efficacy of FBP on the inhibition of ARPE-19 cell apoptosis was assessed through annexin V/propidium iodide (PI) staining, followed by flow cytometry analysis. […] After 24 h of treatment with NaIO3 (10 mM) and the FBP peptide (700 μM), the cells were harvested and stained using the Dead Cell Apoptosis Kits with annexin V for Flow Cytometry (Invitrogen, Carlsbad, CA, USA), following the manufacturer’s protocol. The stained cells were collected and analyzed using a BD FACSCalibur™ system (Becton Dickinson, Franklin Lakes, NJ, USA).

[8] = system: Fas; test: RT-PCR of Fas expression in NaIO3-treated ARPE-19 cells; type: cell-based, human; conditions: ARPE-19, NaIO3 10 mM + peptide 700 μM, 24 h; N=3; Figure 1A
Description: as §2

[9] = system: NaIO3-induced retinal degeneration rabbits; test: Fundus imaging of RPE degenerated area in NaIO3-induced retinal degeneration rabbit model; type: in vivo, chinchilla rabbits; conditions: for RPE degeneration compared with mock treatment (fundus imaging): NaIO3 60 mg/kg i.v., N=4, Figure 4B; for level of RPE degeneration on day 14 compared with mock group (fundus imaging): day 14, N=4, Figure 4B
Description: (§4) The efficacy of the treatment was evaluated through an experiment conducted by KNOTUS, a contract research organization. In brief, retinal degeneration was induced by intravenous injection of NaIO3 (60 mg/kg) in 20 chinchilla rabbits, weighing 2 kg.
(§5) The eye drop administration group received dosages of 5 mg/mL (250 μg/50 μL) per ocular instillation. For intravitreal administration, peptide solutions (5 mg/mL) were administered in increments of 40 μL per administration. A pipette was used to administer the test substance onto the central cornea of the right eye for each experimental group.
(§6) Anesthetized animals were administered the test substance via subconjunctival injection into the right eye using a 31-gauge syringe needle attached to a syringe. In the case of eye drop administration, the peptides and PBS were administered twice daily for 2 weeks, for a total of 28 administrations. For intravitreal administration, a single dose of the peptide was administered the day after the NaIO3 injection.
Before the administration of NaIO3 (Day 0) and upon concluding the experiment (Day 14), the right eyes of the rabbits were treated with a mydriatic agent (1% midriacyl eye drops). Subsequently, the rabbits were anesthetized with a mixture of Zoletil®50 (Virbac, Carros, France) and Rompun^TM (Bayer AG, Leverkusen, Germany) through intravenous injection (marginal ear vein) at a dosage of 0.1 mL/kg. Fundus imaging was conducted using a fundus camera (TRC-50IX, TOPCON, Tokyo, Japan). The retinal images were analyzed using Image J software version 1.54d (NIH, Bethesda, MD, USA) to determine the area of degeneration in the RPE, with the RPE injury area being manually selected. The total area of the retina, excluding the optic nerve region, was defined as the total area. The proportion of degenerated area was calculated as a percentage using Equation (1). Degenerated area (%) = Degenerated area/Total area(1)

[10] = system: NaIO3-induced retinal degeneration mice; test: In vivo real-time PCR of eye posterior hemisphere in NaIO3-induced retinal degeneration mouse model; set-up: species or system BALB/c mice; conditions: N=3, Figure 3D; for expression of Fas receptor, inflammatory cytokines, and macrophages compared to the mock group (qPCR): posterior hemisphere
From the text: The mouse eye posterior hemisphere was dissected using Vannas scissors. Subsequently, total RNA was extracted from the posterior hemisphere of the left eye using the RNAiso kit (Takara). RNA was reverse-transcribed with the High-Capacity cDNA Reverse Transcription Kit (Applied Biosystems, Waltham, MA, USA) and quantified using PowerUp™ SYBR™ Green Master Mix (Thermo Fisher Scientific, Waltham, MA, USA) on an ABI 7500 Fast Real-Time PCR system (Applied Biosystems, Waltham, MA, USA). Relative expression was determined using the ΔΔCt method, normalized against GAPDH mRNA levels. The primer sequences used are depicted in Table 2.

[11] = system: NaIO3-induced retinal degeneration rabbits; test: H&E staining, ONL to total retinal thickness, in NaIO3-induced retinal degeneration rabbits; type: in vivo, chinchilla rabbits; conditions: rabbit, Day 14, N=4, Figure 4D
Description: as §4, §5, §6
On the concluding day of the experiment (Day 14), the animals were anesthetized using the previously described mixture of Zoletil®50 and Rompun^TM, after which they were sacrificed. NaIO3-induced retinal degeneration eyes were then extracted, and the central cornea was punctured using an injection needle. Subsequently, the specimens were fixed in a 10% neutral buffered formalin solution. For histopathological examination, the fixed tissues were subjected to processes such as fixation, dehydration, paraffin embedding, and sectioning. H&E staining was then performed, and the proportion (%) of the thickness of the outer nuclear layer (ONL) to the overall retinal thickness was calculated using an Olympus BX-53 optical microscope (Olympus, Tokyo, Japan). Two slides were prepared per eyeball relative to the optic nerve. Measurements were taken at three points on each slide, amounting to a total of six values, which were averaged.

[12] = system: cleaved caspase-3 and 8; test: Western blot of apoptosis-related proteins in NaIO3-treated ARPE-19 cells; type: cell-based, human; conditions: ARPE-19, NaIO3-treated; Figure 1C
Description: Total protein samples were extracted from ARPE-19 cells using ice-cold RIPA buffer containing a protease inhibitor cocktail. A 4× sample buffer containing Tris-(2-Carboxyethyl)phosphine (Invitrogen, Carlsbad, CA, USA) was prepared by mixing 950 µL of 4× Laemmli sample buffer (GenDEPOT) with 50 µL of Tris-(2-Carboxyethyl)phosphine (Invitrogen). Protein samples (15 μg) were diluted in the sample buffer and heated at 95 °C for 5 min. The samples were then loaded onto a 12% SDS-PAGE gel and transferred onto a PVDF transfer membrane. The blots were probed with rabbit anti-cleaved caspase-3 (1:1000, Abcam, Cambridge, UK, ab52293), anti-cleaved caspase-8 (1:1000, Abcam, ab25901) and rabbit polyclonal anti-Fas (1:1000, Abcam, ab82419). Secondary polyclonal antibodies were probed with rabbit IgG coupled to HRP (1:2000, Abcam, ab97051). Finally, the blots were developed using ECL Western blotting substrate (Promega, Madison, WI, USA).

[13] = system: Fas/FasL; conditions: neuronal cells; previous study; cited from earlier work
[14] = system: NaIO3-induced retinal degeneration mice; test: TUNEL assay in NaIO3-induced retinal degeneration mouse model; type: in vivo, BALB/c mice; conditions: N=3, Figure 3C
Description: as §3

[15] = system: ARPE-19 cells
Description: To confirm the cytotoxicity of CPP-conjugated FBP (4R-FBP, 5R-FBP, 6R-FBP, 9R-FBP) on ARPE-19 cells, the cells were plated in a 12-well plate at a density of 2 × 10^5/mL. After 24 h of treatment with various peptides (4R-FBP, 5R-FBP, 6R-FBP, 9R-FBP, and FBP), the CCK-8 assay was performed as per the manufacturer’s protocol.
Peptide toxicity was assessed
using CCK-8 assay in ARPE-19 cell. The data are presented as the mean ± SD (N=3 per group). ns

[16] = eye drop application, peptides 10 mg/mL (50 μg/5 μL)
[17] = eye drops 5 mg/mL (250 μg/50 μL) twice daily for 14 days

Compound: DEHF [4-mer]
- inhibition of Fas/FasL-mediated apoptosis [1]: could not inhibit
- binding to Fas-expressing Jurkat cells [2]: demonstrated binding
- size-dependent retinal delivery (confocal, Alexa647 signal) [3]: successfully delivered

Compound: YCDEHFCY [FBP]
- FBP concentration at which viability of NaIO3-induced ARPE-19 cells was maximum [4]: exceeding 700 μM
- levels of NF-κB, ERK, and JNK (RT-PCR) [5]: decreased levels
- therapeutic effect on integrity of the retinal layer (H&E staining) [6, 16]: no therapeutic effect
- therapeutic effect on integrity of the retinal layer (H&E staining) ([6]; intravitreal injection 1 mg/mL (1 μg/1 μL)): therapeutic effects
- apoptosis (annexin V/PI staining) compared with mock group [7]: statistically significant decrease in apoptosis
- expression of Fas (RT-PCR) [8]: reduced
- RPE degeneration compared with mock treatment (fundus imaging) [9, 17]: significant reduction in RPE degeneration
- RPE degeneration compared with mock treatment (fundus imaging) ([9]; single intravitreal injection 5 mg/mL, 40 μL): significant reduction in RPE degeneration
- level of RPE degeneration on day 14 compared with mock group (fundus imaging) ([9]; eye drops twice daily for 14 days): significantly lower
- level of RPE degeneration on day 14 compared with mock group (fundus imaging) ([9]; single intravitreal injection): significantly lower
- levels of M2 macrophages compared to the mock group (qPCR, CD206) ([10]; intravitreal injection): increased levels
- expression of Fas receptor, inflammatory cytokines, and macrophages compared to the mock group (qPCR) ([10]; intravitreal injection): decreased expression
- proportion of thickness of ONL to total retinal thickness compared with mock group (H&E) ([11]; eye drops twice daily): maintenance of the ONL
- proportion of thickness of ONL to total retinal thickness compared with mock group (H&E) ([11]; single intravitreal injection): maintenance of the ONL
- levels of cleaved caspase-3 and 8 (Western blot) [12]: significant decrease
- transfer to other organs (fluorescence signal vs normal group) [3]: not transferred to any other organ but the eyes
- inhibition of Fas/FasL ligation [13]: effective inhibition of Fas/FasL ligation
- apoptosis levels in retina (TUNEL) ([14]; eye drop application): higher apoptosis levels
- apoptosis levels in retina (TUNEL) ([14]; intravitreal injection): lower apoptosis levels

Compound: GGGRRGGG [Ctrl, nonspecific control peptide, GGGRRGGG, reference compound]
- therapeutic effect on integrity of the retinal layer (H&E staining) [6, 16]: no therapeutic effect
- apoptosis (annexin V/PI staining) compared with mock group [7]: no protective effects against apoptosis
- expression of Fas (RT-PCR) [8]: increased
- levels of cleaved caspase-3 and 8 (Western blot) [12]: upregulation
- apoptosis levels in retina (TUNEL) ([14]; eye drop application): higher apoptosis levels

Compound: RRRRRRGGGGYCDEHFCY [6R-FBP, hexa-arginine (6R) conjugated with FBP]
- therapeutic effect on integrity of the retinal layer (H&E staining) [6, 16]: therapeutic effects
- RPE degeneration compared with mock treatment (fundus imaging) [9, 17]: significant reduction in RPE degeneration
- levels of M2 macrophages compared to the mock group (qPCR, CD206) ([10]; eye drop application): increased levels
- expression of Fas receptor, inflammatory cytokines, and macrophages compared to the mock group (qPCR) ([10]; eye drop application): decreased expression
- proportion of thickness of ONL to total retinal thickness compared with mock group (H&E) ([11]; eye drops twice daily): maintenance of the ONL
- toxicity of CPP-conjugated FBP in retinal cells [15]: lower toxicity
- size-dependent retinal delivery (confocal, Alexa647 signal) [3]: robust fluorescence signals
- apoptosis levels in retina (TUNEL) ([14]; eye drop application): lower apoptosis levels

Compound: CDEHF [5-mer, 5-mer truncated FBP, CDEHF]
- inhibition of Fas/FasL-mediated apoptosis [1]: could not inhibit
- binding to Fas-expressing Jurkat cells [2]: demonstrated binding

Compound: C[C@@H]1C[C@H]2[C@@H]3CCC4=CC(=O)C=C[C@]4(C)[C@@]3(F)[C@@H](O)C[C@]2(C)[C@@]1(O)C(=O)CO [Dexa, dexamethasone, reference compound]
- therapeutic effect on integrity of the retinal layer (H&E staining) [6, 16]: therapeutic effects
- levels of M2 macrophages compared to the mock group (qPCR, CD206) ([10]; eye drop application): increased levels
- expression of Fas receptor, inflammatory cytokines, and macrophages compared to the mock group (qPCR) ([10]; eye drop application): decreased expression
- apoptosis levels in retina (TUNEL) ([14]; eye drop application): lower apoptosis levels
